# Data as given in publication doi:10.1101/2025.01.28.635346v1 (bioRxiv, 2025).
# Bridge positions count the residues as written; N and C are the ends. Peptide text beside a SMILES is read from it.
# Experiments:
# integrin αvβ6 [1] = biological target: T1, integrin αvβ6 (Homo sapiens, UniProt P06756+P18564); experiment: ELISA competition assay, integrin αvβ6 binding to LAP
# integrin αvβ8 = integrin αvβ8 (Homo sapiens, UniProt P06756+P26012); experiment: ELISA competition assay, integrin αvβ8 binding to LAP
# Mouse αvβ6 = biological target: T2, Mouse αvβ6 (Mus musculus, UniProt P43406+Q9Z0T9); experiment: ELISA competition assay, mouse integrin αvβ6; assay type: binding
# T2 sequence (P43406 31-988 limits assumed): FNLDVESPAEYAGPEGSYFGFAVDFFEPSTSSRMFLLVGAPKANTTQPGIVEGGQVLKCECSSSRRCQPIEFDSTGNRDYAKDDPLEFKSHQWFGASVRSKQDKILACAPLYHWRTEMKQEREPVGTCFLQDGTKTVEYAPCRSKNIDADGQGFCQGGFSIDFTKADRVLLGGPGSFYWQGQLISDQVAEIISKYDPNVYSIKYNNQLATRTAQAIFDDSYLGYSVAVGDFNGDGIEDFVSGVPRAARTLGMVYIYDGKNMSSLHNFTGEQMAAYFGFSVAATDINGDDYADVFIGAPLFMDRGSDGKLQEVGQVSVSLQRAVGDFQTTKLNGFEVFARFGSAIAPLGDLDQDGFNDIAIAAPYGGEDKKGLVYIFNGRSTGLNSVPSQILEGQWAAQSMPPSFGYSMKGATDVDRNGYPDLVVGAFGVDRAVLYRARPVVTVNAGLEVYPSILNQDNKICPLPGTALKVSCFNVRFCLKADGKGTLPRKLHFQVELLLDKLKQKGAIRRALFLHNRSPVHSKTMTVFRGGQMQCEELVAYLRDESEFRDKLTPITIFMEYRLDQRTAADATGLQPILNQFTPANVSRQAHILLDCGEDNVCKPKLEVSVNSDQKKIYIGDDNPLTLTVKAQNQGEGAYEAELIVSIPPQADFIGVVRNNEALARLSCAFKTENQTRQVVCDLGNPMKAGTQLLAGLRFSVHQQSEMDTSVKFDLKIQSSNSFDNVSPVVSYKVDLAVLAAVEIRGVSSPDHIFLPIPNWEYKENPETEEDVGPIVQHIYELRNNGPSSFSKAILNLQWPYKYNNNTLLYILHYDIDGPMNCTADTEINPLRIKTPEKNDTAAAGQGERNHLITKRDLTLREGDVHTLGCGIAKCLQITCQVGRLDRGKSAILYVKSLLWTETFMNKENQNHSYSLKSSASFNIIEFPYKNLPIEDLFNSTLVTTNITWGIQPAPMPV
# T2 sequence (Q9Z0T9 22-707 limits assumed): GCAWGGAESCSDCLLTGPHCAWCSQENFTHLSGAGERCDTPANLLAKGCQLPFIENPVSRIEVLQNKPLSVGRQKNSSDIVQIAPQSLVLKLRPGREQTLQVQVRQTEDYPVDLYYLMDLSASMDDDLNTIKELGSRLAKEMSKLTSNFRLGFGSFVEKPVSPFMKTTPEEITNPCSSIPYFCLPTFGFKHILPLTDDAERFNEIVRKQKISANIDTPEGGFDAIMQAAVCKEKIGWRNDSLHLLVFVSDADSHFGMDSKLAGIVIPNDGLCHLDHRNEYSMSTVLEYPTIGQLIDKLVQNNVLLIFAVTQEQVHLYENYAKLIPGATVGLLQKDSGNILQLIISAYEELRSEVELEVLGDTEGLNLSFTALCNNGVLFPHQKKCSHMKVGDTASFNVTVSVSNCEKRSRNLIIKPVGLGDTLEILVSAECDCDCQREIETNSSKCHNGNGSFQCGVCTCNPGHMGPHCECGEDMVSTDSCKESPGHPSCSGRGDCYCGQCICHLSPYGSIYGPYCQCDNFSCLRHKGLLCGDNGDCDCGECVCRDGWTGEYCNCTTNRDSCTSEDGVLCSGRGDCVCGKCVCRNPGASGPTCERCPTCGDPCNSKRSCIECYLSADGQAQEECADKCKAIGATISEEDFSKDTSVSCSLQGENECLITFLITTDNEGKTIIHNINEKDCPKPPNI
# [2] = tested on: αvβ6/8 vs other RGD-integrins; experiment: Selectivity and potency gain for αvβ6/8, worked out from integrin IC50 values; assay type: binding, human; details: for improvement in potency (IC50) for αvβ6/8 relative to parent lassotide: 24 and 30 vs 14, 35 vs 28, 36 vs 30, 47 vs 36
# integrin αvβ3 = integrin αvβ3 (Homo sapiens, UniProt P05106+P06756); experiment: ELISA competition assay, integrin αvβ3; assay type: binding
# integrin αvβ6 [3] = biological target: T1, integrin αvβ6; experiment: AlphaLISA competition assay vs LAP, biotinylated αvβ6; assay type: binding
# [4] = αvβ6 IC50, ELISA competition vs LAP, mean, n ≥ 3
Compound,"IC50 (integrin αvβ6 [1]; Human αvß6 IC50, ELISA run in triplicate, mean, Table S1)",IC50 (integrin αvβ6 [1]; [4]),IC50 (integrin αvβ8),IC50 (Mouse αvβ6),improvement in potency (IC50) for αvβ6/8 relative to parent lassotide [2],IC50 (integrin αvβ6 [1]),IC50 (integrin αvβ3),selectivity favoring αvβ6/8 over αvβ3 ([2]; from IC50 values),IC50 (integrin αvβ6 [3])
CC[C@H](C)[C@H](NC(=O)[C@H](CC(C)C)NC(=O)[C@H](CC(=O)O)NC(=O)CNC(=O)[C@H](CCCNC(=N)N)NC(=O)[C@@H](NC(=O)[C@H](Cc1ccccc1)NC(=O)[C@H](Cc1ccc(O)cc1)NC(=O)[C@@H]1CCC(=O)NCC(=O)NCC(=O)N[C@@H](CCCNC(=N)N)C(=O)NCC(=O)N[C@@H](Cc2c[nH]cn2)C(=O)N[C@@H](C(C)C)C(=O)N2CCC[C@H]2C(=O)N1)C(C)C)C(=O)N[C@@H](CO)C(=O)N[C@@H](Cc1ccccc1)C(=O)N[C@@H](Cc1ccc(O)cc1)C(=O)NCC(=O)O [lassotide 30] (GGRGHVPEYFVRGDLISFYG-OH; lactam N-8; C-terminus assumed),0.017 µM,0.03 µM,0.027 µM,0.024 µM,3-4 fold,,,,
CC[C@H](C)[C@H](NC(=O)[C@H](CC(C)C)NC(=O)[C@H](CC(=O)O)NC(=O)CNC(=O)[C@H](CCCNC(=N)N)NC(=O)[C@@H](NC(=O)[C@H](Cc1ccccc1)NC(=O)[C@H](Cc1ccc(O)cc1)NC(=O)[C@@H]1CCC(=O)NCC(=O)NCC(=O)N[C@@H](CCCCN)C(=O)NCC(=O)N[C@@H](Cc2c[nH]cn2)C(=O)N[C@@H](C(C)C)C(=O)N2CCC[C@H]2C(=O)N1)C(C)C)C(=O)N[C@@H](CO)C(=O)N[C@@H](Cc1ccccc1)C(=O)N[C@@H](Cc1ccc(O)cc1)C(=O)N[C@@H](CCCCN)C(=O)O [lassotide 35] (GGKGHVPEYFVRGDLISFYK-OH; lactam N-8; C-terminus assumed),,0.025 µM,0.036 µM,,up to 2 fold,,,,
CC[C@H](C)[C@H](NC(=O)[C@H](CC(C)C)NC(=O)[C@H](CC(=O)O)NC(=O)CNC(=O)[C@H](CCCNC(=N)N)NC(=O)[C@@H](NC(=O)[C@H](Cc1ccccc1)NC(=O)[C@H](Cc1ccc(O)cc1)NC(=O)[C@@H]1CCC(=O)NCC(=O)NCC(=O)N[C@@H](C)C(=O)NCC(=O)N[C@@H](Cc2c[nH]cn2)C(=O)N[C@@H](C(C)C)C(=O)N2CCC[C@H]2C(=O)N1)C(C)C)C(=O)N[C@@H](CO)C(=O)N[C@@H](Cc1ccccc1)C(=O)N[C@@H](Cc1ccc(O)cc1)C(=O)NCC(=O)O [lassotide 14] (GGAGHVPEYFVRGDLISFYG-OH; lactam N-8; C-terminus assumed),,,0.116 µM,,,0.084 µM,0.238 µM,2-3 fold,
CC(C)C[C@H](NC(=O)[C@H](CC(=O)O)NC(=O)CNC(=O)[C@H](CCCNC(=N)N)NC(=O)[C@@H](NC(=O)[C@H](Cc1ccccc1)NC(=O)[C@H](Cc1ccc(O)cc1)NC(=O)[C@@H]1CCC(=O)NCC(=O)NCC(=O)N[C@@H](C)C(=O)NCC(=O)N[C@@H](Cc2c[nH]cn2)C(=O)N[C@@H](C(C)C)C(=O)N2CCC[C@H]2C(=O)N1)C(C)C)C(=O)N[C@@H](CCC(N)=O)C(=O)N[C@@H](CO)C(=O)N[C@@H](Cc1ccccc1)C(=O)N[C@@H](Cc1ccc(O)cc1)C(=O)NCC(=O)O [lassotide 24] (GGAGHVPEYFVRGDLQSFYG-OH; lactam N-8; C-terminus assumed),,,,0.007 µM,up to 7 fold,0.006 µM,,,0.013 µM
